Like-named read-outs stand apart in the source and are kept apart here.
How the values were obtained:
[1] = tested on: F. graminearum conidia and hyphae; assay type: cell-based, Fusarium graminearum
F. graminearum PH-1 = assay type: cell-based, Fusarium graminearum

Substance	binding to the surface of fungal hyphae [1]	entry into fungal cells [1]	IC100: amount of protein required to inhibit F. graminearum conidial germination completely (F. graminearum PH-1)	antifungal activity (F. graminearum PH-1; 96 µM)	antifungal activity compared with TMR-GMA4-C (F. graminearum PH-1; 16 h)	antifungal activity of labeled compared with untagged/unlabeled protein or peptide (F. graminearum PH-1)	antifungal activity (F. graminearum PH-1; 24 µM)
TAM-GRCAAAARRCFCTTHC [TMR-GMA4-CM]	failed to bind	no indication of entry into fungal cells	>96 µM	no antifungal activity	significantly lower antifungal activity		
TAM-GRCRGFRRRCFCTTHC [TMR-GMA4-C]		entered the cytoplasm	48 µM			considerably less antifungal activity	significant growth inhibition
RTCENLADKYRGPCFSGCDTHCTTKENAVSGRCRDDFRCWCTKRC [MsDef1, reference compound]			>6 µM				
GRCRGFRRRCFCTTHC [GMA4-C]			< 6 µM				
